Source: US7005274B1, “Methods and compositions for diagnosing and treating arthritic disorders and regulating bone mass” (MIGENIX Corp., priority 1999, dated 2006)

Assays:
TC28 cells [1] = assay: Cell viability by LDH release in stressor-exposed chondrocytes; assay type: cell-based; conditions: for cell viability (LDH release) under SIN-1 / cell viability under NOC-12 / cell viability of cells exposed to SIN-1 or NOC-12: compound 1 μM; for cell viability (LDH release) under SIN-1: 100 μM SIN-1; for cell viability under NOC-12: NOC-12 (250 μM)
Method: (§1) This example describes screening assays using defined chondrocyte functions, for identifying agents that protect chondrocytes from mitochondrial stressors, such as energy depletion or reactive free radicals. Chondrocytic TC28 cells were maintained at 37° C., 5% CO2 in monolayer culture in DMEM/Ham's F12 medium (1:1) supplemented with 10% FCS, 1% L-glutamine, 100 U/ml penicillin and […] streptomycin (Omega Scientific, Tarzana, Calif.). To more closely approximate the in vivo physiologic nonadherent state of chondrocytes for monitoring GAG release (FIG. 10), an in vitro culture system was used wherein TC28 cells were transferred to 6-well plates that had been previously coated for 18 hours at 22° C. with the cell adhesion inhibitor poly-2-hydroxymethacrylate (polyHEMA), provided as a 10% (w/v) solution in 95% ethanol, then washed twice with PBS. Complete medium (DMEM/F12 supplemented as described above) was then added to wells, and cells were maintained under these conditions for up to 72 hours (Folkman et al., 1978 Nature 273:345; Reginato et al., 1994 Arthritis Rheum. 37:1338). Maintenance of chondrocyte phenotype was confirmed by RT-PCR determination of gene transcripts encoding the chondrocyte extracellular matrix components type II collagen and aggrecan (Reginato et al., 1994).
Cells were exposed to one of several agonists added to cultures as stressors for 72 hours, in the absence or presence of candidate chondrocyte protective agents (listed in Table 2). According to non-limiting theory, such stressors may act as one or more of a mitochondrial inhibitor, an inducer of altered mitochondrial function, an apoptogen, an energy-depleting agent, or the like. Stressors used in this example included the […] NOC-12 (N-ethyl-2-(1-ethyl-2-hydroxy-2-nitrosohydrazino)ethanamine; Calbiochem, La Jolla, Calif.); the peroxynitrite donor SIN-1 (3-morpholinosydnonimine, HCl; Calbiochem); and the inflammatory cytokine human recombinant interleukin-1 beta (IL-1β, Calbiochem). Cytotoxicity was determined using the lactate dehydrogenase release assay (Promega, Madison, Wis.) as described above and according to the manufacturer's instructions, and chondrocyte intracellular ATP was determined using the luciferase assay as described above in Example 1.

TC28 cells [2] = assay: GAG release, dimethylene blue dye binding; assay type: cell-based; conditions: for GAG release caused by stressor: TC28 nodules, SIN-1 100 μM, NOC-12 25 μM, IL-1β
Method: as §1
Glycosaminoglycan (GAG) release is widely believed to be a cardinal event in the pathogenesis of osteoarthritis, and is stimulated by IL-1β (see, e.g., Sztrolovics et al., 1999 Biochem. J. 339:571 and references cited therein). Therefore, GAG release was determined in chondrocytes maintained on polyHEMA-coated plates as follows: Chondrocyte cartilage “nodules” from the polyHEMA cultures were digested for one hour with papain, 300 μg/ml in 20 mM sodium phosphate-pH 6.8, 1 mM EDTA, 2 mM dithiothreitol. Released GAG was assayed colorimetrically by dimethylene blue (DMB) dye binding according to established procedures (Farndale et al., 1986 Biochim. Biophys. Acta 883:173; Sztrolovics et al., 1999 Biochem. J. 339:571). Briefly, aliquots of the papain digest were added to a dye solution containing 46 μM DMB, 40 mM glycine-pH 3.0, 40 mM NaCl and read immediately in a spectrophotometer at 525 nm. Quantification of GAG in the samples was achieved from calculations using a standard curve generated with samples of 1–50 μg/ml chondroitin sulfate. Mitochondrial protecting agents based on derivatized creatine, ethoxyquin and guanidine compounds were synthesized essentially as disclosed in WO99/37294 (PCT/US99/01718) and WO99/55321 (PCT/US99/09990), which are hereby incorporated by reference in their entireties; these agents were tested as representative candidate chondrocyte protective agents.

TC28 cells [3] = assay: Intracellular ATP, luciferase assay; assay type: cell-based; conditions: for intracellular ATP levels relative to control culture not exposed to NOC-12: NOC-12 alone or in the presence of 1 μM compound
Method: (§2) Levels of total cellular ATP were measured by a modification of luciferase-based assays known in the art (Lin et al., Anal. Biochem. 24:531–540, 1968); related assays and modifications may alternatively be used (see, e.g., Turman et al., In Vitro Cell. Dev. Biol. Anim. 32:1–4, 1996, for an assay format that uses a fluorescent plate reader). In brief, 2×10^6 cells were washed and pelleted in 10 ml phosphate-buffered saline (PBS). The cell pellets were snap-frozen in a dry ice/ethanol bath, after which […] of 0.2 M HCl was added, followed by 0.3 ml of 2 mM glycine (pH 9.0). Samples were heated at 100° C. for five minutes, then placed on ice. A standard curve was developed using 0 to 500 pmol of purified ATP (disodium salt). One hundred (100) μl of the cell extract, or purified ATP standard, was added to an equal volume of the ATP assay mixture (containing MgSO4, DTT, EDTA, luciferase and luciferin, all from the Sigma Bioluminescence Assay Kit and all diluted 1:25). Following a 5 second incubation and 15 second integration, samples were read on a TD-20/20 Luminometer (Turner Designs, Sunnyvale, Calif.).

[4] = system: articular chondrocytes and TC28 cells; assay: Oxygen consumption with a Clark electrode (respiratory rate); assay type: cell-based, human; conditions: SIN-1 500 μM; NOC-12 250 μM; antimycin A and oligomycin concentration not stated
[5] = system: articular chondrocytes and TC28 cells; assay: Intracellular ATP, statements covering both cell preparations; assay type: cell-based, human; conditions: for intracellular ATP levels (qualitative): SIN-1 500 μM, NOC-12 250 μM, antimycin A and oligomycin concentration not stated
Method: as §2
In FIG. 1A, articular chondrocytes or TC28 cells (5×10^5) in 5 ml were studied in triplicate in the presence of antimycin (or oligomycin, see next Example) at the indicated concentrations, administered every 24 hours for a total of 72 hours, and total intracellular ATP concentrations were determined as described above. Viability determinations are shown in FIG. 1B, where 2×10^4 chondrocytes or TC28 cells in 0.2 ml were cultured in triplicate in the presence of antimycin (or oligomycin) at the indicated concentrations, administered every 24 hours for a total of 72 hours, and cell viability was determined by trypan blue dye exclusion (>200 cells counted for each replicate).

Articular Chondrocytes = assay: Intracellular ATP, luciferase assay; assay type: cell-based, human; conditions: 10 ng/ml TGFβ, 0.025 mM antimycin A, 0.02 μg/ml oligomycin; mean ± SD
Method: Human articular cartilage chondrocytes were obtained by collagenase digestion of articular cartilage samples, and subsequent monolayer culture, essentially as described by Terkeltaub et al. (Arthritis Rheum. 41:2152–2164, 1998). The starting material for these primary cultures was human articular cartilage excised during surgical joint replacement, or obtained at autopsy from normal or osteoarthritic joints. The articular chondrocytes were grown in Dulbecco's modified Eagle's Medium with high glucose (DMEM high glucose, Life Technologies, Inc. Grand Island, N.Y.) with 10% fetal calf serum (FCS), 1% glutamine, 100 U/ml penicillin and 50 μg/ml streptomycin (all reagents from Sigma, St. Louis, Mo., unless otherwise noted). Typically, only first passage cells were used in the studies described herein.
as §2, with “Calif.). […]” for “Calif.).”

Cc1cc(O)ccc1NC(=N)N [A]
cell viability (LDH release) under SIN-1 (TC28 cells [1]): protective effect on cell viability
cell viability under NOC-12 (TC28 cells [1]): moderating effect of the test compounds on NO cytotoxicity

N=C1NCCN1CC(=O)O [B]
cell viability (LDH release) under SIN-1 (TC28 cells [1]): protective effect on cell viability
cell viability under NOC-12 (TC28 cells [1]): moderating effect of the test compounds on NO cytotoxicity

CN(CC(=O)O)C(=N)N [C]
GAG release induced by SIN-1 or NOC-12 (TC28 cells [2]; SIN-1 (100 μM) or NOC-12 (25 μM), 1 μM compound, not shown): the severity of this release was moderated
IL-1β-stimulated GAG release (TC28 cells [2]; TC28 nodules on polyHEMA-coated plates): somewhat attenuated the degree of GAG release
cell viability (LDH release) under SIN-1 (TC28 cells [1]): protective effect on cell viability
cell viability under NOC-12 (TC28 cells [1]): moderating effect of the test compounds on NO cytotoxicity

N=C(N)Nc1ccc(N2CCOCC2)cc1 [E]
intracellular ATP levels relative to control culture not exposed to NOC-12 (TC28 cells [3]): significant depression of intracellular ATP
cell viability under NOC-12 (TC28 cells [1]): significantly higher viability

CC(=N)NNCC1(C)CCc2c(C)c(O)c(C)c(C)c2O1 (centres unmarked) [J]
cell viability of cells exposed to SIN-1 or NOC-12 (TC28 cells [1]): demonstrated chondrocyte protective activity

CN(C)c1cc(C(C)(C)c2ccc(O)c(N(C)C)c2)ccc1O [K]
cell viability of cells exposed to SIN-1 or NOC-12 (TC28 cells [1]): demonstrated chondrocyte protective activity

CC(C)(c1ccc(O)cc1)c1ccc(O)c(N)c1 [L]
cell viability of cells exposed to SIN-1 or NOC-12 (TC28 cells [1]): demonstrated chondrocyte protective activity

CCNCCN(CC)N(O)N=O [NOC-12, N-ethyl-2-(1-ethyl-2-hydroxy-2-nitrosohydrazino)ethanamine]
intracellular ATP levels relative to control culture not exposed to NOC-12 (TC28 cells [3]): significant depression of intracellular ATP
respiratory rates [4]: markedly inhibited respiratory rates
GAG release caused by stressor (TC28 cells [2]): also released GAG
intracellular ATP levels (qualitative) [5]: depressed intracellular ATP levels

Nc1c[n+](N2CCOCC2)no1.[Cl-] [SIN-1, 3-morpholinosydnonimine, HCl]
respiratory rates [4]: markedly inhibited respiratory rates
GAG release caused by stressor (TC28 cells [2]): also released GAG
intracellular ATP levels (qualitative) [5]: depressed intracellular ATP levels

IL-1β: inflammatory cytokine human recombinant interleukin-1 beta
effect of stressor on intracellular ATP levels (TC28 cells [3]; TC28 cells): did not cause a decrease in intracellular ATP levels
GAG release caused by stressor (TC28 cells [2]): IL-1β-stimulated GAG release
effect of stressor on viability (TC28 cells [1]; TC28 cells): did not cause a decrease

TGFβ
ATP (pmoles/μg DNA):TC28 cells (TC28 cells [3]; 10 ng/ml TGFβ, 0.025 mM antimycin A, 0.02 μg/ml oligomycin, mean ± SD): 801.6 ± 4.9 pmoles/μg DNA
increase of intracellular ATP ([5]; chondrocytes, assessed 72 hours after treatment): about 3 fold
ATP (pmoles/μg DNA): Articular Chondrocytes (Articular Chondrocytes): 1,158 ± 6.9 pmoles/μg DNA
